Measured values as given in patent US6461997B1, “Triazole sulfones having herbicidal activity” (Monsanto Technology LLC, priority 1999, dated 2002).

Legend:
[1] = tested on: AGSST (creeping bentgrass); test: Pre-plant incorporated (PPI) herbicidal activity, cool season; type: in vivo, Agrostis stolonifera; conditions: for Percent inhibition AGSST: weed, PPI application; for PPI activity GR80, AGSST: pre-plant incorporated, lowest tested rate with 80% or greater inhibition, about 14 days
Procedure: (§1) In another set of tests, the pre-plant incorporated (PPI) activity of compounds of this invention was evaluated on the same species as for the pre-emergence tests described above. In the PPI tests the following procedure, designed to simulate PPI application, was used.
(§2) A pre-prepared topsoil mixture (described above) was placed in a pot and compacted to a depth of 1.0 to 1.25 cm from the top of the pot. Seeds of each of several monocotyledonous and dicotyledonous annual plant species were placed on top of the soil. A sufficient quantity of soil to cover the seeds and level fill the pot was weighed into an open container. A known amount of the test compound was dissolved or suspended in an organic solvent and applied by spraying to this cover soil. The cover soil was thoroughly mixed to distribute the test compound throughout the cover soil, and was then applied as a cover layer over the seeds. Untreated soil was used as a cover layer for control pots. After treatment the plants were placed in a greenhouse where they received 0.64 cm of overhead irrigation. All subsequent watering consisted of a light overhead mist and/or subirrigation as needed for germination and growth. Tables 9 and 10 below relate to warm season plant species which were placed after pre-emergence treatment in a greenhouse with a 30/21° C. day/night temperature regime. Tables 11 and 12 below relates to cool season plant species placed after pre-emergence treatment in a greenhouse or growth chamber with an 18/13° C. day/night temperature regime. Only the compounds of Examples 1, 6, 8, 11, 13 and 15-20 were included in PPI tests.
(§3) Approximately 14 days after planting and treating, the plants were observed and herbicidal efficacy recorded as percent inhibition by comparison with untreated plants.

[2] = tested on: LAMPU (purple deadnettle); test: Pre-emergence herbicidal activity, cool season; type: in vivo, Lamium purpureum; conditions: lowest tested rate with 80% or greater inhibition; rates 300, 100, 30, 10 g/ha; about 14 days
How it was run: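 Seeds sown in sterilised fertilised topsoil received surface-applied compound in 50:50 acetone/water, typically at 300, 100, 30 and 10 g/ha, then greenhouse-grown at 30/21° C (warm-season species) or 18/13° C (cool-season species). Percent inhibition versus untreated plants was scored at about 14 days, giving GR80; an asterisk marks activity short of 80% at the top rate.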

DIGSA (large crabgrass) = test: Pre-plant incorporated (PPI) herbicidal activity, warm season; type: in vivo, Digitaria sanguinalis; conditions: for Percent inhibition DIGSA: PPI application; for PPI activity GR80, DIGSA: pre-plant incorporated, lowest tested rate with 80% or greater inhibition, about 14 days
Procedure: as §1, §2, §3

ALOMY (blackgrass) = test: Pre-emergence herbicidal activity, cool season; type: in vivo, Alopecurus myosuroides; conditions: GR80 = lowest tested rate (300, 100, 30, 10 g/ha) with 80% or greater inhibition; approx. 14 days after treating; 18/13° C.
How it was run: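 Seeds were sown in sterilized, fertilized topsoil, covered, and the soil surface was sprayed with compound in 50:50 acetone/water at 300, 100, 30 and 10 g/ha. Pots were held at 30/21 °C day/night (PANMI, DIGSA) or 18/13 °C (ALOMY, POLCO). GR80 came from percent inhibition versus untreated plants at about 14 days.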

PANDI (fall panicum) = test: Pre-plant incorporated (PPI) herbicidal activity, warm season; type: in vivo, Panicum dichotomiflorum; conditions: for Percent inhibition PANDI: PPI application; for PPI activity GR80, PANDI: pre-plant incorporated, lowest tested rate with 80% or greater inhibition, about 14 days
Procedure: as §1, §2, §3

[3] = tested on: VERPE (creeping speedwell); test: Pre-plant incorporated (PPI) herbicidal activity, cool season; type: in vivo, Veronica persicaria; conditions: for PPI activity GR80, VERPE: pre-plant incorporated, lowest tested rate with 80% or greater inhibition, about 14 days; for Percent inhibition VERPE: weed, PPI application
Procedure: as §1, §2, §3

CCN(CC)C(=O)n1cnc(S(=O)(=O)C(F)(F)F)n1 [Example 2]
Percent inhibition AGSST ([1]; 30 g/ha): 100% | Percent inhibition AGSST ([1]; 100 g/ha): 99% | Percent inhibition AGSST ([1]; 300 g/ha): 100% | Percent inhibition AGSST ([1]; 900 g/ha): 100% | Pre-emergence activity GR80, LAMPU [2]: 10 g/ha | Percent inhibition DIGSA (DIGSA (large crabgrass); 30 g/ha): 85% | Percent inhibition DIGSA (DIGSA (large crabgrass); 100 g/ha): 99% | Percent inhibition DIGSA (DIGSA (large crabgrass); 300 g/ha): 90% | Percent inhibition DIGSA (DIGSA (large crabgrass); 900 g/ha): 100% | Pre-emergence activity (GR80) ALOMY (ALOMY (blackgrass)): 100 g/ha | Percent inhibition PANDI (PANDI (fall panicum); 30 g/ha): 100% | Percent inhibition PANDI (PANDI (fall panicum); 100 g/ha): 100% | Percent inhibition PANDI (PANDI (fall panicum); 300 g/ha): 100% | Percent inhibition PANDI (PANDI (fall panicum); 900 g/ha): 100%

CCN(CC)C(=O)n1cnc(S(=O)(=O)C(F)(F)Cl)n1 [Example 3]
Percent inhibition AGSST ([1]; 30 g/ha): 100% | Percent inhibition AGSST ([1]; 100 g/ha): 100% | Percent inhibition AGSST ([1]; 300 g/ha): 100% | Percent inhibition AGSST ([1]; 900 g/ha): 100% | Pre-emergence activity GR80, LAMPU [2]: 100 g/ha | Percent inhibition DIGSA (DIGSA (large crabgrass); 30 g/ha): 70% | Percent inhibition DIGSA (DIGSA (large crabgrass); 100 g/ha): 100% | Percent inhibition DIGSA (DIGSA (large crabgrass); 300 g/ha): 100% | Percent inhibition DIGSA (DIGSA (large crabgrass); 900 g/ha): 100% | Pre-emergence activity (GR80) ALOMY (ALOMY (blackgrass)): 100 g/ha | Percent inhibition PANDI (PANDI (fall panicum); 30 g/ha): 80% | Percent inhibition PANDI (PANDI (fall panicum); 100 g/ha): 100% | Percent inhibition PANDI (PANDI (fall panicum); 300 g/ha): 100% | Percent inhibition PANDI (PANDI (fall panicum); 900 g/ha): 100%

CCN(CC)C(=O)n1cnc(S(=O)(=O)C(F)(F)C(F)(F)Br)n1 [Example 4]
Percent inhibition AGSST ([1]; 30 g/ha): 100% | Percent inhibition AGSST ([1]; 100 g/ha): 100% | Percent inhibition AGSST ([1]; 300 g/ha): 100% | Percent inhibition AGSST ([1]; 900 g/ha): 100% | Pre-emergence activity GR80, LAMPU [2]: 30 g/ha | Percent inhibition DIGSA (DIGSA (large crabgrass); 30 g/ha): 85% | Percent inhibition DIGSA (DIGSA (large crabgrass); 100 g/ha): 90% | Percent inhibition DIGSA (DIGSA (large crabgrass); 300 g/ha): 100% | Percent inhibition DIGSA (DIGSA (large crabgrass); 900 g/ha): 100% | Pre-emergence activity (GR80) ALOMY (ALOMY (blackgrass)): 300 g/ha | Percent inhibition PANDI (PANDI (fall panicum); 30 g/ha): 0% | Percent inhibition PANDI (PANDI (fall panicum); 100 g/ha): 100% | Percent inhibition PANDI (PANDI (fall panicum); 300 g/ha): 100% | Percent inhibition PANDI (PANDI (fall panicum); 900 g/ha): 100%

CCN(CC)C(=O)n1cnc(S(=O)(=O)C(F)(F)C(=O)c2ccccc2)n1 [Example 6]
PPI activity GR80, AGSST [1]: 100 g/ha | Pre-emergence activity GR80, LAMPU [2]: 100 g/ha | PPI activity GR80, DIGSA (DIGSA (large crabgrass)): 100 g/ha | Pre-emergence activity (GR80) ALOMY (ALOMY (blackgrass)): 100 g/ha | PPI activity GR80, PANDI (PANDI (fall panicum)): 100 g/ha | PPI activity GR80, VERPE [3]: 100 g/ha

CCN(CC)C(=O)n1cnc(S(=O)(=O)C(F)(F)C(F)F)n1 [Example 16]
PPI activity GR80, AGSST [1]: 10 g/ha | Percent inhibition AGSST ([1]; 10 g/ha): 100% | Percent inhibition AGSST ([1]; 30 g/ha): 100% | Percent inhibition AGSST ([1]; 100 g/ha): 100% | Percent inhibition AGSST ([1]; 300 g/ha): 100% | Percent inhibition AGSST ([1]; 900 g/ha): 100% | Pre-emergence activity GR80, LAMPU [2]: 100 g/ha | Percent inhibition DIGSA (DIGSA (large crabgrass); 10 g/ha): 70% | Percent inhibition DIGSA (DIGSA (large crabgrass); 30 g/ha): 100% | Percent inhibition DIGSA (DIGSA (large crabgrass); 100 g/ha): 90% | Percent inhibition DIGSA (DIGSA (large crabgrass); 300 g/ha): 100% | Percent inhibition DIGSA (DIGSA (large crabgrass); 900 g/ha): 100% | PPI activity GR80, DIGSA (DIGSA (large crabgrass)): 10 g/ha | Pre-emergence activity (GR80) ALOMY (ALOMY (blackgrass)): 100 g/ha | Percent inhibition PANDI (PANDI (fall panicum); 10 g/ha): 0% | Percent inhibition PANDI (PANDI (fall panicum); 30 g/ha): 100% | Percent inhibition PANDI (PANDI (fall panicum); 100 g/ha): 100% | Percent inhibition PANDI (PANDI (fall panicum); 300 g/ha): 100% | Percent inhibition PANDI (PANDI (fall panicum); 900 g/ha): 100% | PPI activity GR80, PANDI (PANDI (fall panicum)): 10 g/ha | PPI activity GR80, VERPE [3]: 100 g/ha | Percent inhibition VERPE ([3]; 10 g/ha): 100% | Percent inhibition VERPE ([3]; 30 g/ha): 95% | Percent inhibition VERPE ([3]; 100 g/ha): 100% | Percent inhibition VERPE ([3]; 300 g/ha): 100% | Percent inhibition VERPE ([3]; 900 g/ha): 100%
